# Test results reported in article PMC4589873, “A pain-inducing centipede toxin targets the heat activation machinery of nociceptor TRPV1” (Nature Communications, 2015).
# Legend:
# [1] = tested on: mTRPV1 point mutants at D602, Y632, T634 and L461; assay: Calcium imaging of mTRPV1 point mutants; type: cell-based, mouse; details: glycine or alanine mutation; 10 μM RhTx, 10 μM capsaicin
# Excerpt: TRPV1 and TRPV3 chimeras used in this study were generated by the overlapping extension method[54] and confirmed by DNA sequencing, as described previously. Briefly, to generate V1/3S, the primer pairs (5′-[…]-3′and 5′-[…]-3′) were used. To generate other TRPV1/TRPV3 chimeras, the enzyme cutting sites by MluI were made by the primer pair (5′-[…]-3′ and 5′-[…]-3′) for TRPV1 and the primer pair (5′-[…]-3′ and 5′-[…]-3′) for TRPV3. The enzyme cutting sites by PvuI were made by the primer pair (5′-[…]-3′ and 5′-[…]-3′) for TRPV1 and the primer pair (5′-[…]-3′ and 5′-[…]-3′) for TRPV3. The enzyme cutting sites by BsiWI were made by the primer pair (5′-[…]-3′ and 5′-[…]-3′) for TRPV1 and the primer pair (5′-[…]-3′ and 5′-[…]-3′) for TRPV3. […]
# Mouse DRG neurons were acutely dissociated and maintained in a short-term primary culture according to procedures as previous descripted. […] Fluorescence images of DRG neurons and HEK-293T cells were acquired with an Olympus IX81 microscope with Hamamatsu C4742 charge-coupled device camera controlled by the MetaFluor Software (Molecular Devices). Fluo-4 was excited by a mercury vapour light source with a 500/20-nm excitation filter, while fluorescence emission was detected with a 535/30-nm emission filter. Fluorescence images were required with automated routines written in MetaMorph software (Molecular Devices) and analysed with Igor Pro (Wavemetrics).
# [2] = tested on: TRPV1; assay: Cooling of RhTx- or capsaicin-induced channel activation; type: cell-based; details: RhTx at 1 μM
# Method: (§1) As described in details in a previous report, macroscopic currents (in whole-cell, inside-out or outside-out configuration) as well as single-channel currents were recorded using a HEKA EPC10 amplifier with the PatchMaster software (HEKA). Both pipette solution and bath solution contained 130 mM NaCl, 3 mM HEPES and 0.2 mM EDTA (pH 7.2). All recordings were performed at room temperature unless otherwise stated. A holding potential of 0 mV was used from which a testing pulse to +80 mV was applied. Statistical difference was determined using the Student’s t-test, and indicated by ** when reaching the significance level P<0.001.
# [3] = tested on: mTRPV1 point mutants at D602, Y632, T634 and L461; assay: Whole-cell current of mTRPV1 point mutants; type: cell-based, mouse; details: glycine or alanine mutation, both at 10 μM, +80 mV
# Excerpt: TRPV1 and TRPV3 chimeras used in this study were generated by the overlapping extension method[54] and confirmed by DNA sequencing, as described previously. Briefly, to generate V1/3S, the primer pairs (5′-[…]-3′and 5′-[…]-3′) were used. To generate other TRPV1/TRPV3 chimeras, the enzyme cutting sites by MluI were made by the primer pair (5′-[…]-3′ and 5′-[…]-3′) for TRPV1 and the primer pair (5′-[…]-3′ and 5′-[…]-3′) for TRPV3. The enzyme cutting sites by PvuI were made by the primer pair (5′-[…]-3′ and 5′-[…]-3′) for TRPV1 and the primer pair (5′-[…]-3′ and 5′-[…]-3′) for TRPV3. The enzyme cutting sites by BsiWI were made by the primer pair (5′-[…]-3′ and 5′-[…]-3′) for TRPV1 and the primer pair (5′-[…]-3′ and 5′-[…]-3′) for TRPV3. V1/3M were generated by enzyme cut and paste between MluI and PvuI sites, while V1/3L were generated by enzyme cut and paste between MluI and BsiWI sites. V1_S1S2_1, V1_S1S2_3 and V1_S1S2_3 were generated as previously reported. […]
# As described in details in a previous report, macroscopic currents (in whole-cell, inside-out or outside-out configuration) as well as single-channel currents were recorded using a HEKA EPC10 amplifier with the PatchMaster software (HEKA). […] Statistical difference was determined using the Student’s t-test, and indicated by ** when reaching the significance level P<0.001.
# [4] = tested on: Trpv1−/− knockout mice; assay: Paw-licking assay in TRPV1 knockout mice; type: in vivo, mouse; details: intraplantar, 1 μmol per paw
# Method: In vivo effects of RhTx on WT mice or Trpv1^−/− mice were examined according to protocols described previously. For the paw-licking assay, pain was induced in mice by intraplantar injection of 0.1% formalin, capsaicin (1 μmol per paw) or RhTx (1 μmol per paw). Each of the testing materials was dissolved in 100 μl saline. Control mice received the same volume of saline. Injected mice were placed individually into open polyvinyl cages (20 × 40 × 15 cm). Time spent licking the injected paw was recorded by a digital video camera during the following 40 min. For recording colonic temperature from WT or Trpv1^−/− mice, mice equipped with a copper-constantan thermocouple were individually placed in open polyvinyl cages. A data logger was connected to the thermocouple. Mice were injected intraperitoneally with 100 μl saline containing capsaicin or RhTx. The dose of capsaicin or RhTx was 10 μmol kg^−1 for these experiments. Mice in the control group received the same volume of saline.
# [5] = target: T1, mTRPV1 (Mus musculus, UniProt Q704Y3); assay: Whole-cell patch-clamp of mTRPV1 expressed in HEK293 cells; type: cell-based; details: SEM
# T1 construct: expressed in transfected cells; host or cells: HEK-293T
# Excerpt: TRPV1 and TRPV3 chimeras used in this study were generated by the overlapping extension method[54] and confirmed by DNA sequencing, as described previously. Briefly, to generate V1/3S, the primer pairs (5′-[…]-3′and 5′-[…]-3′) were used. To generate other TRPV1/TRPV3 chimeras, the enzyme cutting sites by MluI were made by the primer pair (5′-[…]-3′ and 5′-[…]-3′) for TRPV1 and the primer pair (5′-[…]-3′ and 5′-[…]-3′) for TRPV3. The enzyme cutting sites by PvuI were made by the primer pair (5′-[…]-3′ and 5′-[…]-3′) for TRPV1 and the primer pair (5′-[…]-3′ and 5′-[…]-3′) for TRPV3. The enzyme cutting sites by BsiWI were made by the primer pair (5′-[…]-3′ and 5′-[…]-3′) for TRPV1 and the primer pair (5′-[…]-3′ and 5′-[…]-3′) for TRPV3. V1/3M were generated by enzyme cut and paste between MluI and PvuI sites, while V1/3L were generated by enzyme cut and paste between MluI and BsiWI sites. V1_S1S2_1, V1_S1S2_3 and V1_S1S2_3 were generated as previously reported. All mTRPV1 point mutations were constructed using the QuickChange II XL site-directed mutagenesis kit following the manufacturer’s instruction. These point mutations were sequenced to confirm that appropriate constructs were made. HEK-293T cells were cultured and transiently transfected using Lipofectamine 2,000 (Invitrogen) as previously described.
# as §1
# T1 sequence (Q704Y3 whole entry): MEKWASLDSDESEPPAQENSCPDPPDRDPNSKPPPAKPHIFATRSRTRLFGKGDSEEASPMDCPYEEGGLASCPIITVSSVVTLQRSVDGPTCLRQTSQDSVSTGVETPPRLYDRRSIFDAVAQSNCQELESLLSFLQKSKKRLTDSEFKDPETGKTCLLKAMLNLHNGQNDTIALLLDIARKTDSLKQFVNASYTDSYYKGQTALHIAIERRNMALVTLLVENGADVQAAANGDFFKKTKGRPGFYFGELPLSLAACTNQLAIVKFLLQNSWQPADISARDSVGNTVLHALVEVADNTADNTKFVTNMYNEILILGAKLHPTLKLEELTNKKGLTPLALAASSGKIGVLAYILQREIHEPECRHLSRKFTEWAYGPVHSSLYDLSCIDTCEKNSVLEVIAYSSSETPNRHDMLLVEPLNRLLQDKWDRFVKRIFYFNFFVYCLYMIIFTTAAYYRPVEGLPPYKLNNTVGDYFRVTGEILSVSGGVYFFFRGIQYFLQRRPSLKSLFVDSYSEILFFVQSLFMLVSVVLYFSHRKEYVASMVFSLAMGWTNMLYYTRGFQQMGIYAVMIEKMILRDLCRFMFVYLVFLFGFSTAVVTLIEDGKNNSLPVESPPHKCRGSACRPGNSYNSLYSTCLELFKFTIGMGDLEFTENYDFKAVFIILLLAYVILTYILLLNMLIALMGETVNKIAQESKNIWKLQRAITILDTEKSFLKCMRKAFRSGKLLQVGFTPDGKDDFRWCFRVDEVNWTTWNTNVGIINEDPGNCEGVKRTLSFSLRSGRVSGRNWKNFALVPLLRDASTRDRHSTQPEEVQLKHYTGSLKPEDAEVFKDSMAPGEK
smiles,measurement,setting,value
"COc1cc(CNC(=O)CCCC/C=C/C(C)C)ccc1O [capsaicin, reference compound]",agonist-induced intracellular calcium increase in point mutants versus WT channel,[1],sparing
same,effect of lowering the experimental temperature on agonist-induced channel activation,[2],could not prevent
same,agonist-induced current in point mutants versus WT channel,[3],sparing
same,pain behaviour (paw licking) in knockout mice,[4],ineffective
same,EC50,[5],214 ± 20.6 nM
same,Hill slope,[5],1.36±0.18
